{"source": "paper PMC11879692", "about": "“PDE4 inhibitor rolipram represses hedgehog signaling via ubiquitin-mediated proteolysis of GLI transcription factors to regress breast cancer” (The Journal of Biological Chemistry, 2025)", "key": {"[1]": {"system": "MDA-MB-231 cells", "assay": "MTT cell viability assay", "assay_type": "cell-based", "details": "Homo sapiens, 24 h, read-out: concentration for 50% growth inhibition (IC50)", "method": "(§1) To determine the concentration of rolipram required for 50% growth inhibition (IC50) of MCF-7 and MDA-MB-231 cells, MTT (3-[4,5-dimethylthiazol-2-yl]-2,5 diphenyl tetrazolium bromide) assay, which relies on the reduction of MTT to form purple-colored formazan crystals by mitochondrial dehydrogenases, was performed ([27]). Cells were seeded in a 96-well plate at a density of 3 × 10^3 cells/well and treated with increasing concentrations of rolipram ranging from 1 to 80 μM. MTT (G Biosciences; catalog no.: RC1130) was added after 24 h of treatment, formazan crystals were dissolved in 100 μl of DMSO, and absorbance measured at 595 nm using the BioRad iMark Microplate Reader (RRID: SCR_023799). The percentage of metabolically active cells was calculated with respect to untreated control cells, negating the blank reading. Graphs were plotted for the percentages of viable cells against the concentrations of rolipram to obtain linear trend-line equations, which were used to derive the IC50 concentration of rolipram for each cell lines. The IC50 doses were used for all subsequent experiments ([28])."}, "[2]": {"system": "MCF-7 cells", "assay": "MTT cell viability assay", "assay_type": "cell-based", "details": "Homo sapiens, MCF7, 24 h, read-out: concentration for 50% growth inhibition (IC50)", "method": "as §1"}, "[3]": {"system": "4T1 mice breast carcinoma cells, mammary fat pad tumor", "assay": "Histological study of mammary tissue and lung of tumor-bearing mice", "assay_type": "in vivo, BALB/c mice", "details": "for number of cells per unit area (480 px × 400 px) of lung histological sections: tumor-induced 213 ± 20, control 143 ± 19, mean ± SD", "method": "(§2) Solid tumors were developed in BALB/c mice (n = 3) except the control group (group I) by injecting 1 × 10^4 viable 4T1 (RRID: CVCL_0125) mice breast carcinoma cells (resuspended in 50 μl of PBS) into the inguinal fourth mammary fat pad, and the tumor was allowed to develop for 14 days ([37], [38]). Mice were randomly divided into three groups, viz., untreated tumor (group II), mice treated intraperitoneally with 1 mg//kg bodyweight of rolipram (group III), and mice receiving 5 mg/kg bodyweight of rolipram, intraperitoneally (group IV) ([39], [40]). After 14 days, the mice were sacrificed. Lung, kidney, liver, serum, and the tumors were collected for further experiments ([15]).\nTissue samples of mammary tissue, lung, kidney, and liver from each group of mice were fixed in Bouin’s solution (Sigma–Aldrich; catalog no.: HT10132), dehydrated in graded alcohol, and embedded in paraffin wax. Thin sections (5 μm) of tissues were mounted on glass slides and stained with hematoxylin (Sigma–Aldrich; catalog no.: H3136), following rehydration with graded alcohol. The samples were again dehydrated with graded alcohol and stained with eosin and mounted with Dystyrene Plasticizer Xylene ([42]). The images were obtained in an Olympus CKX53 Inverted Microscope (RRID: SCR_025025) at 10X magnifications with MagVision Software (Magnus). The QuPath (RRID: SCR_018257) software ([43]) was used to detect the cells and determine the area of individual cells and their corresponding nuclei in each image. The tab-delimited text file obtained from QuPath software was utilized by NumPy ([44]) (RRID: SCR_008633) to determine the nucleus-to-cytoplasm ratio of individual cells, and the frequency (cell count) of the nucleus-to-cytoplasm ratio was plotted by MatPlotLib (RRID: SCR_008624), a Python (RRID: SCR_008394) 2D plotting library. For quantifying the number of cells in a unit area of histological section of lung, each section image was divided into 12 equal parts (dimensions: 480 px × 400 px). The number of cells in each part was obtained from QuPath (RRID: SCR_018257) software, and the values were represented as mean ± SD."}, "[4]": {"system": "MDA-MB-231 cells", "assay": "Wound healing assay", "assay_type": "cell-based, human", "method": "(§3) Cells were seeded and allowed to attain a 2D monolayer of cells. […] The percentage of open area was evaluated using Tscratch software (CSElab, Koumoutsakos group at ETH Zurich, https://github.com/cselab/TScratch) (RRID: SCR_014282)."}, "[5]": {"system": "MCF-7 cells", "assay": "Wound healing assay", "assay_type": "cell-based, human", "method": "as §3"}, "[6]": {"system": "intracellular cAMP in MCF-7 cells", "assay": "cAMP assay (ELISA-based kit), intracellular cAMP", "assay_type": "cell-based, human", "details": "24 h, untreated control 14.1 pmol/ml", "method": "(§4) To determine the intracellular level of cAMP, a […] ELISA-based cAMP assay kit was used, which relies on preparation of a standard curve for cAMP (pmol/ml) and denoting all the experimental values from the standard curve, and finally expressing as mean values with standard errors of triplicate samples per treatment group. The assay kit was obtained from Cayman Chemicals (item no.: 581001), and the assay was performed following the manufacturer’s protocol after washing the cells with 1X PBS (composition: 137 mM NaCl, 2.7 mM KCl, 10 mM Na2HPO4, and 1.8 mM KH2PO4) and treating with 0.1 M HCl for 20 min and sonicating the cells for lysis. In brief, the cell lysate was added to the 96-well plate precoated with mouse monoclonal anti-rabbit IgG and which also contained cAMP–acetylcholinesterase (cAMP tracer) that competes with the free cAMP in the cell lysate to bind to the cAMP-specific rabbit antibody. Following several washes, the absorbance of the color generated because of addition of acetylcholinesterase substrate is measured at 412 nm by Bio-Rad iMark Microplate Reader (RRID: SCR_023799), which is inversely proportional to the amount of free cAMP present in the cell lysate ([29])."}, "[7]": {"system": "intracellular cAMP in MDA-MB-231 cells", "assay": "cAMP assay (ELISA-based kit), intracellular cAMP", "assay_type": "cell-based, human", "details": "24 h, untreated 12.55 pmol/ml", "method": "as §4"}, "[8]": {"assay": "Histological analysis of liver of tumor-bearing mice", "assay_type": "in vivo, BALB/c mice", "details": "rolipram-treated tumor-bearing mice; dilation observed in untreated tumor-bearing mice", "method": "as §2\nTissue samples of mammary tissue, lung, kidney, and liver from each group of mice were fixed in Bouin’s solution (Sigma–Aldrich; catalog no.: HT10132), dehydrated in graded alcohol, and embedded in paraffin wax. Thin sections (5 μm) of tissues were mounted on glass slides and stained with hematoxylin (Sigma–Aldrich; catalog no.: H3136), following rehydration with graded alcohol. The samples were again dehydrated with graded alcohol and stained with eosin and mounted with Dystyrene Plasticizer Xylene ([42]). […] For quantifying the number of cells in a unit area of histological section of lung, each section image was divided into 12 equal parts (dimensions: 480 px × 400 px). […]"}}, "data": [{"compound": "COc1ccc(C2CNC(=O)C2)cc1OC1CCCC1", "note": "(stereo not drawn) [rolipram, Rolipram]", "values": [{"measurement": "IC50", "setting": "[1]", "result": 53, "unit": "µM"}, {"measurement": "IC50", "setting": "[2]", "result": 38, "unit": "µM"}, {"measurement": "number of cells per unit area (480 px × 400 px) of lung histological sections", "setting": "[3]; 1 mg/kg bodyweight", "result": "154 ± 11"}, {"measurement": "number of cells per unit area (480 px × 400 px) of lung histological sections", "setting": "[3]; 5 mg/kg bodyweight", "result": "119 ± 10"}, {"measurement": "metastatic cellular infiltration in the lung tissues", "setting": "[3]; rolipram-treated tumor-bearing mice", "result": "significantly reduce"}, {"measurement": "multinucleated cells in the mammary fat pad and glandular region", "setting": "[3]; rolipram-treated tumor-bearing mice, p < 0.001", "result": "reduced"}, {"measurement": "percentage of open area (wound)", "setting": "[4]; MDA-MB-231, IC50 dose, 24 and 48 h, untreated 33% to 20% and 12%", "result": "no significant change"}, {"measurement": "cell migration capability", "setting": "[4]; MDA-MB-231, in the presence of TAK-243 (0.1 μM)", "result": "failed to retard the cell migration capability"}, {"measurement": "percentage of open area (wound)", "setting": "[5]; MCF-7, IC50 dose, up to 48 h, untreated 45% to 34% (24 h) and 22% (48 h)", "result": "failed to significantly reduce the percentage of open area"}, {"measurement": "cell migration capability", "setting": "[5]; MCF-7, in the presence of TAK-243 (0.1 μM)", "result": "failed to retard the cell migration capability"}, {"measurement": "intracellular cAMP level", "setting": "[6]; MCF-7, IC50 dose", "result": 43.12, "unit": "pmol/mL"}, {"measurement": "intracellular cAMP level", "setting": "[6]; MCF-7, half IC50 dose", "result": 24.02, "unit": "pmol/mL"}, {"measurement": "intracellular cAMP level", "setting": "[7]; MDA-MB-231, IC50 dose", "result": 37.41, "unit": "pmol/mL"}, {"measurement": "intracellular cAMP level", "setting": "[7]; MDA-MB-231, half IC50 dose", "result": 28.35, "unit": "pmol/mL"}, {"measurement": "hepatic vein dilation", "setting": "[8]", "result": "not evident"}]}]}
